For series [1], the system named is hydantoin racemase enzyme solution of transformant. Nature of the series: Substrate specificity of hydantoin racemase of transformant. The format is biochemical, Escherichia coli HB101 (pBHR001). As to conditions: activity for L-5-(2-methylthioethyl)hydantoin taken at 100, method of Example 2. The protocol: (§1) Substrate specificity of purified hydantoin racemase was examined. First, 0.1 ml of purified hydantoin racemase obtained in Example 1 was added to each 0.9 ml of 50 mM Tris-HCl buffers (pH 7.5) containing 50 mM L-5-(2-methylthioethyl)hydantoin, 50 mM D-5-(2-methylthioethyl)hydantoin, 13 mM D-5-(1-mercapto-1-methyl)ethylhydantoin, 8 mM L-5-isobutylhydantoin, 50 mM L-5-(1-methylpropyl)hydantoin, and 4 mM L-5-benzylhydantoin, respectively. The mixtures were allowed to react at 30° C., and the reaction was terminated by adding 0.1 ml of 1N HCl. Except for the reaction using the substrate D-5-(1-mercapto-1-methyl)ethylhydantoin, the reaction was analyzed by diluting the supernatant of a centrifuged reaction mixture two times with ion exchange water, and by quantifying the D-5-substituted hydantoin compound generated in the reaction mixture, using HPLC. HPLC analysis was performed under the conditions given above. For the reaction using the substrate D-5-(1-mercapto-1-methyl)ethylhydantoin, the reaction mixture was analyzed by quantifying a sample that had been obtained by extracting the reaction mixture with 1 ml of ethyl acetate. Analysis was performed by performing HPLC under the following conditions. Column: CHIRALPAK AD-H (Daicel), eluent: hexane/isopropanol=9/1, flow rate: 1 ml/min., column temperature: 25° C., detection: 210 nm.
Using the hydantoin racemase enzyme solution of transformant obtained in Example 7, substrate specificity was examined according to the method of Example 2. The result is shown in Table 4 as relative activities, taking the activity for L-5-(2-methylthioethyl)hydantoin at 100.

In series [2] the test system is purified hydantoin racemase. Nature of the series: Substrate specificity of purified hydantoin racemase. The format is biochemical, Bacillus sp. KNK519HR. As to conditions: purified enzyme; activity for L-5-(2-methylthioethyl)hydantoin taken at 100; 30° C., Tris-HCl pH 7.5; substrate 4-50 mM. The protocol: as §1
Series [3] addresses T1, hydantoin racemase of Pseudomonas sp. (Pseudomonas sp., UniProt Q00924).
T1 sequence (Q00924 1-249): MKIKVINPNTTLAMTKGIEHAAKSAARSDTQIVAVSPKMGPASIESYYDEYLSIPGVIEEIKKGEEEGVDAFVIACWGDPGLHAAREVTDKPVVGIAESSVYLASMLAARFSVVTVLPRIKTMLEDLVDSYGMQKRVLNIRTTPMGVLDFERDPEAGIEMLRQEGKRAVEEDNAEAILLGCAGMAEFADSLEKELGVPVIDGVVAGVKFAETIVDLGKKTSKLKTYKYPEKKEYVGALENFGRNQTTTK
As to conditions: Pseudomonas sp. enzyme; proportion of D-form at reaction time 10 minutes; L-5-(2-methylthioethyl)hydantoin = 100; cited from earlier work.

The subject of series [4] is hydantoin racemase produced by Bacillus sp. KNK519HR. In words: Substrate specificity with crude enzyme solution of Bacillus sp. KNK519HR (HPLC). As to conditions: activity for L-5-isobutylhydantoin taken at 100, 30° C., pH 7.5, HPLC of D-hydantoin. The format is biochemical. The protocol:
Substrate specificity of hydantoin racemase produced by Bacillus sp. KNK519HR was examined using a crude enzyme solution of Bacillus sp. KNK519HR that was produced according to the procedure described in Example 1. First, 0.1 ml of crude enzyme solution was added to each 0.9 ml of 50 mM Tris-HCl buffers (pH 7.5) containing 4 mM L-5-benzylhydantoin, 50 mM L-5-(2-methylthioethyl)hydantoin, and 8 mM L-5-isobutylhydantoin, respectively. The mixtures were allowed to react at 30° C., and the reaction was terminated by adding 0.1 ml of 1N HCl. The supernatant of a centrifuged reaction mixture was diluted two times with ion exchange water, and the D-5-substituted hydantoin compound generated in the reaction mixture was quantified by HPLC. HPLC analysis was performed under the following conditions. Column: Chirobiotic T (4.6 mm×250 mm, ASTEC Inc., eluent: 0.01% (v/v) Triethylamine acetate (pH 6.8)/methanol=9/1, flow rate: 0.7 ml/min., column temperature: 35° C., detection: 210 nm. Further, 0.1 ml of crude enzyme solution of Bacillus sp. KNK519HR was added to 0.9 ml of 50 mM Tris-HCl buffer (pH 7.5) containing 50 mM 5-methylhydantoin, together with recombinant Escherichia coli having D-form selective hydantoinase activity for 1 ml of culture solution (described later), and recombinant Escherichia coli having D-form selective N-carbamylamino acid amidohydrolase activity for 1 ml of culture solution. The mixture was allowed to react at 30° C., and the reaction was terminated by adding 0.1 ml of 1N HCl. After neutralization with 1N NaOH, the reaction mixture was centrifuged and the D-alanine generated in the supernatant was quantified by an enzyme method using D-amino acid oxydase and peroxydase.

Series [5] relates to purified hydantoin racemase. In words: Measurement of Km value (Lineweaver-Burk plot). It counts as biochemical, Bacillus sp. KNK519HR. As to conditions: FIG. 2. As to the method: A Km value for L-5-(2-methylthioethyl)hydantoin was determined from the Lineweaver-Burk plot.
Series [6] concerns hydantoin racemase produced by Bacillus sp. KNK519HR. Nature of the series: Substrate specificity with crude enzyme solution coupled with D-hydantoinase and D-N-carbamylamino acid amidohydrolase, D-alanine quantified by enzyme method. It counts as biochemical. As to conditions: L-5-isobutylhydantoin = 100, 50 mM substrate. The protocol: Substrate specificity of hydantoin racemase produced by Bacillus sp. KNK519HR was examined using a crude enzyme solution of Bacillus sp. KNK519HR that was produced according to the procedure described in Example 1. First, 0.1 ml of crude enzyme solution was added to each 0.9 ml of 50 mM Tris-HCl buffers (pH 7.5) containing 4 mM L-5-benzylhydantoin, 50 mM L-5-(2-methylthioethyl)hydantoin, and 8 mM L-5-isobutylhydantoin, respectively. The mixtures were allowed to react at 30° C., and the reaction was terminated by adding 0.1 ml of 1N HCl. The supernatant of a centrifuged reaction mixture was diluted two times with ion exchange water, and the D-5-substituted hydantoin compound generated in the reaction mixture was quantified by HPLC. HPLC analysis was performed under the following conditions. […] After neutralization with 1N NaOH, the reaction mixture was centrifuged and the D-alanine generated in the supernatant was quantified by an enzyme method using D-amino acid oxydase and peroxydase.
Quantification of D-alanine by the enzyme method was performed as follows. […] The mixture was allowed to react for 90 minutes, and an absorbance at 555 nm was measured to quantity the D-alanine generated in the reaction mixture. […]

Series [7] is described as follows: Substrate inhibition of hydantoin racemase (crude enzyme solution). It counts as biochemical, Bacillus sp. KNK519HR. The settings on record: L-5-(2-methylthioethyl)hydantoin as substrate between 50 mM and 80 mM; initial rate, 30° C., FIG. 7. The protocol: Substrate inhibition of the hydantoin racemase produced by Bacillus sp. KNK519HR was examined using the crude enzyme solution prepared in Example 1. In a reaction mixture of 0.1-ml crude enzyme solution and each 0.9-ml of 50 mM Tris-HCl buffers (pH 7.5) respectively containing 5, 10, 50, and 80 mM L-5-(2-methylthioethyl)hydantoin, respectively, the reaction was performed at 30° C. for 10, 20, 30, and 40 minutes. After the reaction, hydantoin racemase activity was abolished by adding 0.1 ml of 1N HCl. The supernatant of the centrifuged reaction mixture was diluted two times with ion exchange water, and the D-5-(2-methylthioethyl)hydantoin generated in the reaction mixture was quantified by HPLC. HPLC analysis was performed under the same conditions used in Example 3. An initial reaction rate was determined at each initial substrate concentration. FIG. 7 represents a relationship between relative activity and initial substrate concentration.

Series [8] in a line: Effective temperature range, optimum temperature, effective pH range and optimum pH of the enzyme. It counts as biochemical, Bacillus sp. KNK519HR. The settings on record: FIG. 3, activity at 40° C. taken at 100%. As to the method:
Assessment was made as to effective temperature range and optimum temperature. FIG. 3 represents relative activities at different temperatures, taking the activity at 40° C. at 100%. The optimum temperature of the enzyme was 40° C., and the enzyme desirably exerted its action at all temperatures in the evaluated temperature range of 25° C. to 65° C.
Assessment was made as to effective pH range and optimum pH. […] The enzyme exerted its action in a pH range of 6 to 10. The optimum pH range was 8 to 9.

A short description of series [9]: Hydantoin racemase activity of purified enzyme, HPLC quantification of D-5-(2-methylthioethyl)hydantoin generated. The format is biochemical, Bacillus sp. KNK519HR. The settings on record: 30° C., 30 minutes, 50 mM Tris-HCl buffer (pH 7.5), 50 mM L-5-(2-methylthioethyl)hydantoin; 1 unit = 1 μmol D-form per minute. The protocol:
In an embodiment of the present invention, the hydantoin racemase activity of the polypeptide can be measured by, for example, quantification of D-5-(2-methylthioethyl)hydantoin generated at 30° C. in 30 minutes in 50 mM Tris (tris(hydroxymethyl)aminomethane)-HCl buffer (pH 7.5) containing 50 mM L-5-(2-methylthioethyl)hydantoin, using high-performance liquid chromatography (HPLC) or the like.
The activity of the purified hydantoin racemase was determined by HPLC, by quantifying the amount of increase of D-5-(2-methylthioethyl)hydantoin generated at 30° C. in 30 minutes in a 50 mM Tris-HCl buffer (pH 7.5) containing 50 mM L-5-(2-methylthioethyl)hydantoin. HPLC analysis was performed under the following conditions. Column: Chirobiotic T (4.6 mm×250 mm, ASTEC Inc.), eluent: 0.01% (v/v) triethylamine acetate (pH 6.8)/methanol=9/1, flow rate: 0.7 ml/min., column temperature: 35° C., detection: 210 nm. Here, 1 unit was defined as the amount of enzyme that generated 1 μmol D-5-(2-methylthioethyl)hydantoin in one minute. Quantification of protein was performed according to the Lowry method, using BSA as a standard.

Series [10] can be described thus: Temperature stability and pH stability of the enzyme (remaining activity). It counts as physicochemical, Bacillus sp. KNK519HR. As to conditions: FIG. 5. As to the method: Temperature stability of enzyme was examined as the remaining activity after 30 minutes of processing at different temperatures.
pH stability was examined. FIG. 6 represents remaining activity of enzyme after processing the enzyme at 30° C. for 16 hours at different pH, taking the activity of untreated enzyme at 100%. The enzyme was relatively stable in a pH range of 4.5 to 8.0.

Where a chain is given by its changes, count along the chain named.

In the case of `CC(C)(S)C1NC(=O)NC1=O` [D-5-(1-mercapto-1-methyl)ethylhydantoin], the “Relative Activity” value in series [1] was 9; in series [2], 25.
For `CSCC[C@H]1NC(=O)NC1=O` [D-5-(2-methylthioethyl)hydantoin], in that order: 52 and 49.
On to `CCC(C)[C@@H]1NC(=O)NC1=O` (stereo partly drawn) [L-5-(1-methylpropyl)hydantoin], for which the entries for the “Relative Activity” value in series [1], in [3] and in series [2] were 2, 132 and 2, respectively.
As to `CSCC[C@@H]1NC(=O)NC1=O` [L-5-(2-methylthioethyl)hydantoin], the “Relative Activity” value in series [4] is given as 61; in series [1], 100; in series [3], 100; in [2] it was 100. The Km in series [5] worked out at 304 µM.
As to `O=C1NC(=O)[C@H](Cc2ccccc2)N1` [L-5-benzylhydantoin], the “Relative Activity” value is 35 in series [4], 35 in series [1] and 52 in series [2].
Take `CC(C)C[C@@H]1NC(=O)NC1=O` [L-5-isobutylhydantoin]: the “Relative Activity” value was found to be 100 in [4], 174 in series [1] and 173 in series [2].
As to `C[C@@H]1NC(=O)NC1=O` [L-5-methylhydantoin], in series [6], the “Relative Activity” value was 20.

B1: purified hydantoin racemase: hydantoin racemase from Bacillus sp. KNK519HR, polypeptide with the amino acid sequence of SEQ ID NO: 1 (protein, listed as Bacillus sp.)
chain: T1 sequence (Q00924 1-249) with L138V, T212A, R243L
B1: the substrate inhibition entry in series [7] is listed as “had substrate inhibition”. The optimum temperature in series [8] turned out to be 40 °C. This molecule also yielded a specific activity in series [9] of 24.2 unit/mg protein. The “remaining activity (temperature stability)” value in series [10] (after 30 minutes of processing at 30° C.) was 80%; in [10] (after 30 minutes of processing at 70° C.), “almost all activity was lost”.

The term Km denotes the substrate concentration at which the rate is half of its maximum.

These data come from patent US7709235B2, “5-Substituted hydantoin racemase, DNA encoding the same, recombinant DNA, transformed cell, and process for production of optically active N-carbamylamino acid or optically active amino acid” (priority 2005, dated 2010).
